Laboratory results reported in US20050153976A1, “Pharmaceutical compositions” (SCHERING CORPORATION, priority 2003, published 2005).
Values joined by “and” are separate entries in the source; they are usually repeats but may differ in a detail not shown here. Identical values can stand only once.

Columns and labels:
[1] = pKa and log P of the compound of formula I; assay type: physicochemical
Excerpt: (§1) A particularly useful compound for use in the present invention is the compound represented by the chemical structural formula I comprising: [drawing 5] This compound is chemically known as 1-[(1-acetyl-4-piperidinyl)acetyl]-2(S)-(1,1-dimethylethyl)-4(S)*4-[phenyl [4(trifluoromethoxy)phenyl]methyl]piperazine and has a molecular weight of 559.3 g/mole. It is a weak base with a pKa of 4.0 corresponding to the ionization of the piperazine ring. The value of log P is 3.0 and the log D at pH 7.4 is calculated to be 2.9. […] The compound is very soluble in both ethanol and methanol (>150 mg/mL). The solubility in most common organic solvents, such as acetonitrile, dimethyl sulfoxide (DMSO), methylene chloride, ethyl acetate, isopropyl alcohol, hexane, and acetone, generally exceeds 50 mg/mL. The free form of the compound is amorphous, but a crystalline hydrogen sulfate salt of this compound can be made. The X-ray powder diffraction (XRPD) patterns of the amorphous free base and the crystalline hydrogen sulfate salt are shown in FIG. 1.

[2] = In-vivo pharmacokinetic (PK) studies; set-up: species or system rats and dogs; conditions: Dose 10 mg/kg
Excerpt: In-vivo pharmacokinetic (PK) studies in rats and dogs with these compositions show better PK results in terms of AUC, Cmax, and dose proportionality than that of compound only.

[3] = Evaluation of suspension in 0.4% HPMC solution or water (pH, chemical and physical stability, re-suspensibility); assay type: physicochemical
Excerpt: With proper ratios of carrier to compound, free flowing and uniform powders or solids can be produced. These powders or solids should have the original molecular characteristics of the adsorbed chemicals. The residual solvent (EtOH) used in this process can be reduced to 20 ppm level. These flowable powders or solids are suspended in an aqueous solution, such as 0.4% HPMC solution or water.
The flowable powders or solids have been tested to be very stable for at least two weeks chemically and physically at room temperature (RT) and ICH RH4 conditions (40° C. and 75% relative humility). The suspension solutions (SiO2-Compound or MCC-Compound in 0.4% HPMC solution or water) are also very stable both chemically and physically for at least two weeks at room temperature. The evaluation of SiO2-Compound and MCC-Compound are shown in Example 1.
Preparation of SiO2-Compound of Formula I samples may be carried out by the following representative steps. Uniformly mix 0.5 grams of API free form (amorphous) with 1.0 grams of SiO2 (Syliod®) 244 FP) in a container using a magnetic stirrer. Then add 5.0 mL of ethanol to the container to dissolve the compound completely. Stir at room temperature and dry the solution under N2 gas until a slurry is formed. Dry the slurry at increasing temperature beginning at 25° C. ending at 50° C. over a duration of 1 hour and at 50° C. for overnight under house vacuum. […]

[4] = Solubility of the compound in aqueous media and in organic solvents; assay type: physicochemical
Excerpt: as §1

## CC(=O)N1CCC(CC(=O)N2CCN(C(c3ccccc3)c3ccc(OC(F)(F)F)cc3)C[C@@H]2C(C)(C)C)CC1 (stereo partly drawn) [Compound of Formula I, 1-[(1-acetyl-4-piperidinyl)acetyl]-2(S)-(1,1-dimethylethyl)-4(S)*4-[phenyl [4(trifluoromethoxy)phenyl]methyl]piperazine]
[1]
  logP: 3
[1]; weak base, ionization of the piperazine ring
  pKa: 4
[2]
  % AUC (infinity): 1.2%
[2]; in vivo
  AUC(0-t): 2520 ng·h/mL and 4.5 µM·h
  Cmax: 260 ng/mL and 500 nM
  Tmax: 3.3 h
[2]; in vivo, read-out: AUC (infinity)
  AUC(0-inf): 4.6 µM·h and 2550 ng·h/mL
[3]; SiO2 sample at 100 mg/mL, MCC sample at 102 mg/mL, free form as reference
  behaviour when suspended in 0.4% HPMC solution: forms a gum
[3]; aqueous media
  behaviour when suspended in aqueous media: forms a gum
[4]; aqueous media, aqueous buffer, pH 4.0
  solubility: 1.9 µg/mL and 3.4 µM
[4]; aqueous media, pH 2.3, aqueous buffer
  solubility: 74.6 µg/mL and 133 µM
[4]; aqueous media, pH 7.4, aqueous buffer, pH greater than 7.4
  solubility: < 1 µg/mL and < 2 µM
[4]; organic solvent or mixture, in both ethanol and methanol
  solubility: > 150 mg/mL
[4]; organic solvent or mixture, most common organic solvents (acetonitrile, DMSO, methylene chloride, ethyl acetate, isopropyl alcohol, hexane, acetone)
  solubility: > 50 mg/mL
